Experimental data: patent US20100035984A1, “Use of an antibacterial compound which is derived from alliaceae, as a natural additive in animal feed” (DMC Research Center, S.L., priority 2006, published 2010)
Several values for one entry are separate records, joined by “and”; a condition that tells them apart may be missing. Equal entries are not always repeated. Marks after values point to notes of the source that are not given here.

Key:
Format in all cases: cell-based
bifidobacteria = test: In vitro fermentation of pig feces, bifidobacteria count (Example 2); conditions: 200 mg/L, 24 hours
Description: (§1) The mean values affected by different indexes indicate significant differences (p<0.05). The vertical axis of the graph determines the log 10(cfu/g feces) and the horizontal axis determines the compound. The described assays are carried out using complete bacterial inocula obtained from feces of piglets in post-weaning stage. Two of the compounds (referenced as PTS and as PTSO) are assayed in a lower dose range (50-400 mg/L).

lactobacilli = test: In vitro fermentation of pig feces, lactobacilli count (Example 2); conditions: 200 mg/L, 24 hours
Description: as §1

[1] = tested on: microbiota of the ruminal inoculum (ruminal fluid of goats); test: In vitro ruminal degradation of experimental diets (Example 3); conditions: for DDM (degradability of dry matter), mean / DOM (degradability of organic matter), mean: 48 hours; for Mean DDM / Mean DOM / DDM (degradation of dry matter) / DOM (degradation of organic matter): diet D1, 24 hours
Description: The Effect of Different Doses of the Compounds Object of Study on the Ruminal Degradation of Two Different Diets the Composition of which is in Table 1 is Studied The diets consist of alfalfa hay (standard maintenance diet for ruminant animals) or of a mixture of 50% alfalfa hay and a commercial concentrate (standard lactation diet for ruminant animals). In vitro incubation is performed using ruminal fluid of goats as inoculum.

[2] = tested on: ruminal fermentation (methane-producing microorganisms); test: Production of gas by in vitro fermentation of the diets (Example 4)
Description: The effect of different doses of the compounds object of study on the production of gas promoted by in vitro fermentation for 24 and 48 hours of the diets the composition of which is included in Table 1 is studied.

[3] = Alfalfa hay + concentrate, 10 ppm
[4] = Alfalfa hay + concentrate, 25 ppm
[5] = Alfalfa hay + concentrate, 50 ppm
[6] = Alfalfa hay + concentrate, 300 ppm
[7] = Alfalfa hay + concentrate, 750 ppm
[8] = Alfalfa hay + concentrate, 1000 ppm
[9] = Alfalfa hay + concentrate, 2000 ppm
[10] = diet D1, 50 to 750 ppm, 24 hours in vitro incubation
[11] = diet D1, 48 hours, 10 ppm, replicates
[12] = diet D1, 48 hours, 25 ppm, replicates
[13] = diet D1, 48 hours, concentration 50, replicates
[14] = diet D1, 48 hours, concentration 300, replicates
[15] = diet D1, 48 hours, concentration 750, replicates
[16] = diet D1, 48 hours, concentration 1000, replicates
[17] = diet D2, 48 hours, 10 ppm, replicates
[18] = diet D2, 48 hours, 25 ppm, replicates
[19] = diet D2, 48 hours, concentration 50, replicates
[20] = diet D2, 48 hours, concentration 300, replicates
[21] = diet D2, 48 hours, concentration 750, replicates
[22] = diet D2, 48 hours, concentration 1000, replicates
[23] = diet D2, 48 hours, concentration 2000, replicates

## propyl propylthiosulfinate [PTS]
bifidobacteria
  bifidobacteria logarithmic reduction in the population: approximately 50%
lactobacilli
  lactobacilli logarithmic reduction in the population: approximately 50%
[1]; [3]
  DDM (degradability of dry matter), mean: 63.9^ab
  DOM (degradability of organic matter), mean: 63.9^ab
[1]; [4]
  DDM (degradability of dry matter), mean: 59.4^b
  DOM (degradability of organic matter), mean: 59.7^b
[1]; [5]
  DDM (degradability of dry matter), mean: 59.8^b
  DOM (degradability of organic matter), mean: 59.8^b
[1]; [6]
  DDM (degradability of dry matter), mean: 48.3^c
  DOM (degradability of organic matter), mean: 47.8^c
[1]; [7]
  DDM (degradability of dry matter), mean: 43.5^c
  DOM (degradability of organic matter), mean: 45.5^c
[1]; [8]
  DDM (degradability of dry matter), mean: 45.6^c
  DOM (degradability of organic matter), mean: 45.1^c
[1]; [9]
  DDM (degradability of dry matter), mean: 45.3^c
  DOM (degradability of organic matter), mean: 38.7^d
[1]; Alfalfa hay, 10 ppm
  DDM (degradability of dry matter), mean: 54.2^a
  DOM (degradability of organic matter), mean: 54.5^a
[1]; Alfalfa hay, 25 ppm
  DDM (degradability of dry matter), mean: 52.3^a
  DOM (degradability of organic matter), mean: 42.9^bc
[1]; Alfalfa hay, 50 ppm
  DDM (degradability of dry matter), mean: 46.6^b
  DOM (degradability of organic matter), mean: 46.7^b
[1]; Alfalfa hay, 300 ppm
  DDM (degradability of dry matter), mean: 40.6^c
  DOM (degradability of organic matter), mean: 41.0^c
[1]; Alfalfa hay, 750 ppm
  DDM (degradability of dry matter), mean: 39.6^c
  DOM (degradability of organic matter), mean: 39.2^c
[1]; Alfalfa hay, 1000 ppm
  DDM (degradability of dry matter), mean: 39.1^c
  DOM (degradability of organic matter), mean: 38.8^c
[1]; Alfalfa hay, 2000 ppm
  DDM (degradability of dry matter), mean: 39.6^c
  DOM (degradability of organic matter), mean: 40.0^c
[1]; Table 4: diet D1, 48 hours, concentration 2000, replicates
  DDM: 40.2% and 38.9%
[1]; [10]
  effect on degradation of dry matter: reduction of the degradation of dry matter
  effect on degradation of organic matter: do not affect
[1]; 50 ppm
  Mean DDM: 37.1%
  Mean DOM: 38.5%
[1]; 50 ppm, replicates
  DDM (degradation of dry matter): 37.7% (2×) and 37.9% and 34.1% and 35.6% and 39.3%
  DOM (degradation of organic matter): 38.0% and 38.9%
[1]; 300 ppm
  Mean DDM: 37.4%
[1]; 300 ppm, replicates
  DDM (degradation of dry matter): 38.5% and 40.4% and 37.6% and 36.0% and 35.7% and 36.2%
[1]; 750 ppm
  Mean DDM: 39.5%
  Mean DOM: 38.1%
[1]; 750 ppm, replicates
  DDM (degradation of dry matter): 40.8% and 37.7% and 43.2% and 39.5% and 37.9% and 38.0%
  DOM (degradation of organic matter): 39.4% and 36.8%
[1]; [11]
  DDM: 54.5% and 53.9%
  DOM: 54.8% and 54.2%
[1]; [12]
  DDM: 52.0% and 52.5%
  DOM: 43.0% and 42.9%
[1]; [13]
  DDM: 46.2% and 46.9%
  DOM: 47.5% and 45.9%
[1]; [14]
  DDM: 41.8% and 39.4%
  DOM: 42.5% and 39.5%
[1]; [15]
  DDM: 39.6% and 39.7%
  DOM: 38.6% and 39.7%
[1]; [16]
  DDM: 39.1%
  DOM: 38.6% and 38.9%
[1]; diet D1, 48 hours, concentration 2000, replicates
  DOM: 40.3% and 39.7%
[1]; [17]
  DDM: 64.0% and 63.9%
  DOM: 63.8% and 64.0%
[1]; [18]
  DDM: 57.4% and 61.4%
  DOM: 57.6% and 61.8%
[1]; [19]
  DDM: 60.9% and 58.7%
  DOM: 60.9% and 58.8%
[1]; [20]
  DDM: 49.3% and 47.2%
  DOM: 48.6% and 47.1%
[1]; [21]
  DDM: 44.8% and 42.2%
  DOM: 46.5% and 44.6%
[1]; [22]
  DDM: 46.1% and 45.1%
  DOM: 45.6% and 44.7%
[1]; [23]
  DDM: 45.7% and 44.9%
  DOM: 38.9% and 38.5%
[2]
  inhibitory effect on production of fermentation gas, dependence on dose: dose-dependent
[2]; 24 and 48 hours
  inhibitory effect on production of fermentation gas, dependence on time: time-dependent
[2]; diet D2
  doses at which the inhibitory effect on production of fermentation gas is observed: 10 ppm
